From publication PMC5023640, “Purification and characterization of an extracellular β-xylosidase from Pseudozyma hubeiensis NCIM 3574 (PhXyl), an unexplored yeast” (AMB Express, 2016)

Molecular target: T1, PhXyl (extracellular β-xylosidase) (Pseudozyma hubeiensis, UniProt R9NZV8)
T1 construct: gene PHSY_001848; native extracellular enzyme purified from culture supernatant
T1 sequence (R9NZV8 24-873): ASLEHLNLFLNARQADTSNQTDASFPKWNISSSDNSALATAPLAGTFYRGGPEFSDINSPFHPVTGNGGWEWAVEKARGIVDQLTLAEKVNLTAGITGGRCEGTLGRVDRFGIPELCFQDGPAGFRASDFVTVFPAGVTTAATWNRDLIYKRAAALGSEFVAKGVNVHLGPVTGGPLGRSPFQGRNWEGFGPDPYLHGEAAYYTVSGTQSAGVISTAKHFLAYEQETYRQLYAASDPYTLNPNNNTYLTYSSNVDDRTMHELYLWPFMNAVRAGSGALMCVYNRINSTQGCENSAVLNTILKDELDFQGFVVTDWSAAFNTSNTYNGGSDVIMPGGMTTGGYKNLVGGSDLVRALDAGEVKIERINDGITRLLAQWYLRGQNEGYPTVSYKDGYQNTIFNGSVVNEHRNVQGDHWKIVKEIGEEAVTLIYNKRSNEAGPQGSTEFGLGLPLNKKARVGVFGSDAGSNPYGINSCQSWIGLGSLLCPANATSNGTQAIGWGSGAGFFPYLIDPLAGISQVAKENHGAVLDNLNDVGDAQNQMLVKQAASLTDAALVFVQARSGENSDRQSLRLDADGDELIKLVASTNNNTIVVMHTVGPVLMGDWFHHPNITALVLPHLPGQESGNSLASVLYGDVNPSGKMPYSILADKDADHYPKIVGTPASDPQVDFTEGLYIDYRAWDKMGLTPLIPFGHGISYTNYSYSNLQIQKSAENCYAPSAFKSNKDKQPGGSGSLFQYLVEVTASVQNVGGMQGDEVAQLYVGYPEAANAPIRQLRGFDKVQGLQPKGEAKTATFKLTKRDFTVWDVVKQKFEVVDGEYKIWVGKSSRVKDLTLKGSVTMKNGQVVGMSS
Test: inhibition of pNPX hydrolysis
Assay type: biochemical
Settings: read-out: % activity at 75 mM

OC1OC[C@@H](O)[C@H](O)[C@H]1O (stereo partly shown) [xylose]
activity at 75000 µM: 50%
